We go through 2 compounds from US9975860B2, “Anti-angiogenic compounds” (UNIVERSITY COLLEGE DUBLIN—NATIONAL UNIVERSITY OF IRELAND, …, priority 2014, dated 2018).

“Also recorded” adds a separate entry of the source.

Assay [1] has as its system human microvascular endothelial cells (HMECs). Nature of the assay: In vitro tubule formation in human microvascular endothelial cells. It counts as cell-based. As to conditions: 1, 3.16 and 10 μM, 16 hours, HMEC on matrigel. The procedure: Dermal-derived Human Microvascular Endothelial Cells (HMEC) were maintained at 37° C./5% CO2 in MCDB-131 medium (Gibco/cat: 10372) supplemented with 10% FCS, L-Glutamine (Gibco/cat: 25030-032), 1 μl/ml Hydrocortisone (Sigma/cat: H0396), 10 ng/ml EGF (BD Biosciences 354001) and 1% Pen-Strep (Gibco/cat: 151040-148). The wells of a μ-slide angiogenesis plate (IBIDI Cat no: 81506) were coated with a layer of matrigel matrix (BD 356234) which was left to polymerize for 45 minutes at 37° C. HMECs were grown to 80% confluence, washed with DPBS (Invitrogen) and trypsinised using 2 ml TrypLE™ Express (1×) (Invitrogen). Cells were centrifuged following flask detachment at 1200 rpm for 4 minutes. The cell pellet was resuspended in 3 ml full media and a cell count was performed using a haemocytometer. 7.5×10^3 cells were pipetted into each matrigel coated well of the μ-slide angiogenesis plate and treated with either 0.1% DMSO or 1, 3.16 or 10 μM compound 4 or compound 18. The slide was kept at 37° C./5% CO2 during cell tube formation. After 16 hours, the cells were imaged by phase contrast microscopy using the Zeiss Axiovert 200 M microscope. Total tubule length was quantified using Zeiss Axiovision image analysis software. Calcein AM stain (C3099 Invitrogen) was prepared at 2 μg/ml final concentration and incubated with HMEC cells following tubule formation for 30 minutes at 37° C. […]

A further assay has as its system Ang-2. In words: Multiplex ELISA of HMEC media: Ang-2. It counts as cell-based, human. As to conditions: compound-treated HMECs, 16 hours. The protocol: (§1) Dermal-derived Human Microvascular Endothelial Cells (HMEC) were maintained at 37° C./5% CO2 in MCDB-131 medium (Gibco/cat: 10372) supplemented with 10% FCS, L-Glutamine (Gibco/cat: 25030-032), 1 μl/ml Hydrocortisone (Sigma/cat: H0396), 10 ng/ml EGF (BD Biosciences 354001) and 1% Pen-Strep (Gibco/cat: 151040-148). The wells of a μ-slide angiogenesis plate (IBIDI Cat no: 81506) were coated with a layer of matrigel matrix (BD 356234) which was left to polymerize for 45 minutes at 37° C. HMECs were grown to 80% confluence, washed with DPBS (Invitrogen) and trypsinised using 2 ml TrypLE™ Express (1×) (Invitrogen). Cells were centrifuged following flask detachment at 1200 rpm for 4 minutes. The cell pellet was resuspended in 3 ml full media and a cell count was performed using a haemocytometer. 7.5×10^3 cells were pipetted into each matrigel coated well of the μ-slide angiogenesis plate and treated with either 0.1% DMSO or 1, 3.16 or 10 μM compound 4 or compound 18. The slide was kept at 37° C./5% CO2 during cell tube formation. After 16 hours, 50 μl of media was removed from each of the Ibidi wells and 25 μl of the media was run in each well of a Meso Scale Discovery (MD, USA) custom multiplex ELISA containing the following analytes: Ang-1, Ang-2, VEGF, bFGF, PAI-1, sICAM and sVCAM. The ELISA was run as per manufacturer's instructions.
(In general: In an ELISA, binding on a coated surface is turned into a signal by an enzyme label.)

The test system of a further assay is VEGF. In words: Multiplex ELISA of HMEC media: VEGF. It is filed as cell-based, human. As to conditions: compound-treated HMECs, 16 hours. The protocol: as §1
In the next assay the test system is bFGF. Nature of the assay: Multiplex ELISA of HMEC media: bFGF. It is filed as cell-based, human. As to conditions: compound-treated HMECs, 16 hours. The protocol: as §1
The test system of assay [2] is HT29-LUC radioresistant colorectal adenocarcinoma cells. In words: Seahorse OCR (oxidative phosphorylation) in HT29-LUC. It counts as cell-based, human. As to conditions: 10 μM, 24 hours, p<0.01. The procedure:
HT29-LUC radioresistant colorectal adenocarcinoma cells were used to test the effects of the compound 4 on oxidative phosphorylation. Cells were maintained in McCoy's 5A media supplemented with 10% foetal calf serum. A total of 20,000 cells, in 100 μl media, were seeded per well in 24 well plates and left to incubate for 24 hours, with an additional 150 μl media added after 5 hours. The media was replaced with solutions containing 10 μM of compound 4 or the equivalent volume of DMSO vehicle control. After 24 hours of treatment, media was replaced with modified DMEM supplemented with 0.5 mM glucose. Rates of oxidative phosphorylation were determined using Seahorse Biosciences metabolism technology. The media was disposed and the cells washed with PBS. The cells were fixed with 1% glutaraldehyde for 15 minutes and then stained with crystal violet for 30 minutes. The plates were blotted and dried overnight. The cells were resuspended with 1% TritonX-100 and shaken for 15 minutes. The absorbance was read on a spectrophotometer at 595 nm Rates of oxidative phosphorylation were then normalised to cell number.

The test system of a further assay is MMS19. In words: qPCR DNA repair gene expression in OE33P: MMS19. It is filed as cell-based, human. As to conditions: 10 μM, 24 hours, p<0.01. The procedure: OE33P radiosensitive oesophageal adenocarcinoma cells and OE33R radioresistant oesophageal adenocarcinoma cells were used to test the effects of the compound 4 on DNA repair gene expression. Cells were maintained in RPMI media supplemented with 10% foetal calf serum, penicillin (100 U/ml) and streptomycin (100 μg/ml). A total of 300,000 cells, in 2 ml media, were seeded per well in 6 well plates and left to incubate for 24 hours. The media was replaced with solutions containing 10 μM of compound 4 or the equivalent volume of DMSO vehicle control. After 24 hours of treatment, RNA was extracted from the cells and converted to cDNA. qPCR was then conducted and expression of MMS19, SMUG1 PARP1 and MLH1 was quantified, […]
(Real-time PCR tracks product formation cycle by cycle.)

A further assay deals with MLH1. Nature of the assay: qPCR DNA repair gene expression in HT29-LUC: MLH1. It counts as cell-based, human. As to conditions: 10 μM, 24 hours, p<0.01. The protocol: HT29-LUC radioresistant colorectal adenocarcinoma cells were used to test the effects of the compound 4 on DNA repair gene expression. Cells were maintained in McCoy's 5A media supplemented with 10% foetal calf serum. A total of 300,000 cells, in 2 ml media, were seeded per well in 6 well plates and left to incubate for 24 hours. The media was replaced with solutions containing 10 μM of compound 4 or the equivalent volume of DMSO vehicle control. After 24 hours of treatment, RNA was extracted from the cells and converted to cDNA. qPCR was then conducted.

Another assay deals with human HT29-Luc2 cells. In words: Clonogenic assay of cell viability in HT29-Luc2. As to conditions: 10 μM, 24-96 hours. It is filed as cell-based. The protocol:
HT29-Luc2 CRC cells were maintained using McCoy's 5A (Gibco 36600-088) medium supplemented with 10% FBS (Gibco 10270-106) at 37° C./5% CO2. Cells were washed in DPBS and trypsinised using 2 ml TrypLE™ Express (1×) (Invitrogen). Cells were centrifuged following detachment at 1200 rpm for 4 minutes. The cell pellet was resuspended in full media and a cell count was performed using a haemocytometer. 1.5×10^3 cells were seeded per well of a 6 well plate and left to adhere for 24 hours. Cells were then treated with 10 μM of compound 4 or 18 for 24 hours. The drugs were then removed and cells were allowed to grow in fresh media for 10 days in total, clones were then fixed using 4% paraformaldehyde and stained by incubating with 0.5% crystal violet solution (Pro-Lab diagnostics PL.7000) at RT for 2 hours. Clones counting was performed using the ColCount™ system (Oxford Optronix).

For the compound `Cl.Oc1ccccc1/C=C/c1cnccn1` [Compound 4, (E)-2-[2-(Pyrazin-2-yl)vinyl]phenol hydrochloride], in assay [1] (hydrochloride), the “tubule formation (total tubule length)” value is reported as “significantly reduce tubule formation; also recorded: inhibit in vitro tubule formation in a statistically significant manner”. The “expression of Ang-2” value in the assay on Ang-2 (hydrochloride) was “significantly reduce; also recorded: reduce expression of Ang-2 and PAI-1 in human endothelial microvascular cells in a statistically significant manner”. The “expression of VEGF” value with VEGF was “not significantly different to control-treated HMECs”. The “expression of bFGF” value in the assay with bFGF is reported as “not significantly different to control-treated HMECs”. For the same compound, the “oxygen consumption rate (OCR), a measure of oxidative phosphorylation” value in assay [2] was “significantly reduces oxygen consumption rate”. Besides, in the assay on MMS19, the “expression of MMS19 (qPCR)” value is recorded as “significantly reduces the expression of MMS19”. For the same compound, in the assay with MLH1, the “expression of MLH1 (qPCR)” value is listed as “significantly reduces the expression of MLH1”. Further, in the assay with human HT29-Luc2 cells, the “cell viability in a clonogenic assay” value was “does not affect cell viability”.

On to `Oc1ccccc1C#Cc1cnccn1` [Compound 18, 2-[2-(Pyrazin-2-yl)ethynyl]phenol], for which the “tubule formation (total tubule length)” value in assay [1] is reported as “significantly reduce tubule formation; also recorded: inhibit in vitro tubule formation in a statistically significant manner”. For the same compound, the “expression of Ang-2” value in the assay on Ang-2 is “significantly reduce; also recorded: reduce expression of Ang-2 and PAI-1 in human endothelial microvascular cells in a statistically significant manner”. For the same compound, the “expression of VEGF” value in the assay on VEGF was “not significantly different to control-treated HMECs”. In addition, in the assay on bFGF, the “expression of bFGF” value is “not significantly different to control-treated HMECs”. In addition, in the assay on human HT29-Luc2 cells, the “cell viability in a clonogenic assay” value was “does not affect cell viability”.
